The values that follow come from the METLIN SMRT retention time set (Domingo-Almenara et al. 2019).

The data set can be described thus: gradient 5% acetonitrile 3 min, to 50% in 2 min, to 85% in 15 min, held 3 min, 100 µL/min. Conditions: column: Zorbax Extend-C18 2.1 x 50 mm; eluents: water / acetonitrile, 0.1% formic acid. Summed up:
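Values are retention times taken from adduct peaks that software picked and an analyst inspected. The pure standards were run as mixtures of ~100 molecules on HPLC linked to a quadrupole time-of-flight mass spectrometer, in positive and negative ionization mode. A Zorbax Extend-C18 column (2.1 × 50 mm, 1.8 μm) was used at 100 μL/min with water and acetonitrile, each including 0.1% formic acid.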
Take `Cc1ccc(NC(=O)C2CCCN(c3cc(=O)n(C)c(=O)n3C)C2)cc1` (centres undefined): the RP-LC retention time turned out to be 725 s. With `Cc1cc(C)c(S(=O)(=O)N2CCc3c(c(-c4nnc(-c5ccccc5F)o4)nn3C)C2)c(C)c1` the figure was 1070 s; with `Cc1cc(C(=O)N2c3ccccc3CC2c2nnc(C(C)C)o2)nn1C` (centres undefined), 829 s. For `CCc1ccc(S(=O)(=O)N2CCC(n3c(-c4ccoc4)nc4cccnc43)C2)cc1` (centres undefined) the value was 871 s; for `Cc1cc(C)n2nc(SCC(=O)N(C)c3ccccc3)nc2n1`, 705 s. Take `CCN(CC)C(=O)c1ccc2c(c1)N(CC(=O)NC1CCCCCCC1)C(=O)CS2`: the RP-LC retention time is 879 s. `CN1C(=O)c2cc(C(=O)NCc3ccc(F)cc3)nn2CC1(C)C(=O)NCc1ccc(F)cc1` (centres undefined) displayed an RP-LC retention time of 760 s. With `CCn1cc(S(=O)(=O)N2CCCCC2CCn2cc(-c3ccccc3)nn2)cn1` (centres undefined) the figure was 804 s. With `Cc1ncsc1C1N(C2CCN(C(=O)Cn3ccnc3)CC2)C(=O)C12CCCC2` (centres undefined) the figure was 594 s; with `CCC(C)NC(=O)N1CCCN(C2=NS(=O)(=O)C(c3ccc(F)cc3)=C2C)CC1` (centres undefined), 787 s; with `CCN(CC)S(=O)(=O)c1ccc(C)c(-c2nnc(-c3ccccc3)o2)c1`, 1090 s. With `c1ccc(CSc2ccc(-c3ccc4c(c3)OCO4)nn2)nc1` the figure was 617 s. `CCN1CCN(c2nccc(-c3cnc4nc(-c5ccc(Cl)cc5)nn4c3C)n2)CC1` came in with an RP-LC retention time of 1010 s. With `CCc1nc2c(c(=O)n1CC(=O)Nc1ccccc1OC)CN(Cc1ccccc1)CC2` the figure was 650 s. `c1ccc(N2CCN(CCCOc3ccc4c(c3)OCO4)CC2)cc1` showed an RP-LC retention time of 770 s.

`O=C(Cc1ccccc1F)N1CCCn2nc(-c3ccc(Cl)cc3)cc2C1` gave an RP-LC retention time of 979 s.

Consider `CC(C)NC(=O)C(=O)c1c(-c2ccccc2)[nH]c2ccccc12`, for which the RP-LC retention time is 776 s.

Turning to `O=C(CCNc1c(-c2ccc(F)cc2)nc2cnccn12)NCC1CC1`, the RP-LC retention time amounted to 647 s. For `Cc1nc(-c2cccs2)c(CCC(=O)NC2CCCC2)s1` the value was 773 s; for `COc1cccc(CCC(=O)N2CCN(C3=NC=CN4CC(C)N=C34)CC2)c1` (centres undefined), 591 s. For `CCn1c(=O)n(CC(=O)N2CCN(c3ccccn3)CC2)c(=O)c2cnc(-c3ccccc3)nc21` the value was 697 s.

The molecule `CN(Cc1ccco1)C(=O)c1c2c(nc3ccccc13)C(=O)N(C1CCCCC1)C2` showed an RP-LC retention time of 844 s. As for `CCc1ccc(OCC(=O)Nc2nnc(C3CC(=O)N(c4ccccc4)C3)o2)cc1` (centres undefined), the RP-LC retention time was found to be 799 s. With `O=C(c1cn2c(n1)CSCC2)N(Cc1ccccc1)Cc1ccco1` the figure was 736 s. With `COc1cc(NC(=O)c2sc(-c3cn(C)c4ncccc34)nc2C)cc(OC)c1` the figure was 764 s; with `O=C1NC(C(=O)N2CCOCC2)Cn2cccc21` (centres undefined), 568 s; with `Cc1cc(Br)ccc1NC(=O)CCn1c(=O)oc2ccccc21`, 823 s.

For `CN(C)CC[C@@H](c1ccc(Cl)cc1)c1ccccn1`, the RP-LC retention time came to 659 s. With `COc1cc(NC(=O)Cn2nc3c(N4CCSCC4)nccn3c2=O)cc(OC)c1` the figure was 795 s; with `O=C1Nc2ccccc2OC1C(=O)N1CCN(c2ccc(Cl)cc2)CC1` (centres undefined), 889 s. With `Cc1ccccc1CN1CCc2nc(N3CCN(c4ccccc4F)CC3)ncc2C1` the figure was 796 s. With `Cc1ccc(-c2nnc(Cc3nc(-c4ccccc4)no3)o2)cc1C` the figure was 1090 s; with `COc1cc2ncnc(Nc3ccc(NC(=O)c4ccccc4)cc3)c2cc1OC`, 687 s.

`COc1ccccc1-c1nc2cnccn2c1NCCC(=O)Nc1cc(F)ccc1F` registered an RP-LC retention time of 723 s. For `Cc1oc2ccn(Cc3ccccc3F)c(=O)c2c1C(=O)NC1CCCCC1` the value was 1160 s; for `O=S(=O)(c1ccc(-c2noc(-c3cccc(F)c3)n2)cc1)N1CCOCC1`, 1090 s; for `COCC(=O)N(C1CCOCC1)C1CCN(S(=O)(=O)c2ccc(F)cc2)CC1`, 749 s. For `Cc1ccc(-c2cc3c4nn(CC(=O)NC5CCCCC5)c(=O)n4ccn3n2)cc1C` the value was 980 s; for `Cc1cc(Cl)ccc1S(=O)(=O)N1CCC2(CC1)c1nccn1CCN2C`, 697 s. With `Cc1ccccc1NC(=O)N1CCCC(Cn2c(C3CC3)nc3cccnc32)C1` (centres undefined) the figure was 656 s.

`COc1cc(NC(=O)Cn2c(=O)n(C3CCCCC3)c3ncccc32)cc(OC)c1` yielded an RP-LC retention time of 954 s.

The molecule `Nc1nc(N2CCC3(CC2)OCCO3)ncc1C(=O)NCc1ccccc1` came in with an RP-LC retention time of 705 s. With `COC(=O)c1ccc(NC(=O)C(=O)NCC2(c3ccc(F)cc3)CC2)cc1` the figure was 834 s; with `O=C(NC1CCCC1)C(=O)c1cccn1Cc1ccc(F)cc1`, 1020 s; with `Cc1ccc(-c2noc(CSc3nc4cc5c(cc4c(=O)n3Cc3ccccc3)OCO5)n2)cc1`, 1300 s. With `CCC1CCCCN1C(=O)CN1C(=O)CCCc2cc(S(=O)(=O)N3CCC(C)CC3)ccc21` (centres undefined) the figure was 1040 s. With `COc1ccc(-c2nc3ncc4c(=O)n(CCc5ccc(OC)c(OC)c5)ccc4n3n2)cc1` the figure was 854 s; with `O=C(NCCCN1CCN(C2CCCCC2)CC1)c1ccc2c(c1)NC(=O)C1CCCCN21` (centres undefined), 576 s. On to `CCOc1ccc(CC(=O)N2CCN(c3cc(-c4cccs4)[nH]n3)CC2)cc1`, for which the RP-LC retention time amounted to 809 s.

As to `O=C(CN1C(=O)C2CCCCN2c2ccc(S(=O)(=O)N3CCCC3)cc21)NCCc1ccco1` (centres undefined), the RP-LC retention time stood at 885 s. With `CC1CCN(S(=O)(=O)c2nn(C)cc2C(=O)NCC(C)c2ccccc2)CC1` (centres undefined) the figure was 1030 s; with `CC(C)n1c(=O)oc2cc(-c3noc(-c4ccc(C(F)(F)F)cc4)n3)ccc21`, 1310 s; with `CCCn1c(=O)c(C)nc2cc(-c3noc(-c4cccc(OC)c4OC)n3)ccc21`, 1140 s. For `Cc1ccc(Cn2c(=O)c3sccc3n(Cc3nc(-c4ccccc4)no3)c2=O)cc1` the value was 1150 s. For `O=C(NCc1ccco1)c1ccc2cnn(Cc3cccc(Cl)c3)c2c1` the value was 947 s; for `CN1CCN(CCNc2ccc(CO)c3sc4ccccc4c(=O)c23)CC1`, 616 s; for `CS(=O)(=O)N1CCN(Cc2cc3nc(-c4cccc5[nH]ncc45)nc(N4CCOCC4)c3s2)CC1`, 706 s. The molecule `CCCn1cc(CCNC(=O)Nc2ccc(C)c(F)c2)c2cccnc21` yielded an RP-LC retention time of 807 s.

The molecule `COc1ccc(CC(=O)Nc2nnc(SCc3nnc(-c4ccccc4C)o3)s2)cc1` registered an RP-LC retention time of 923 s. With `CCN(C(=O)CCCC(=O)OC)c1nc(-c2ccc(C)cc2)cs1` the figure was 1180 s; with `O=c1ccc(-c2ccc3c(c2)OCO3)nn1Cc1nc(-c2ccc(F)cc2)no1`, 988 s; with `COc1ccc(C)cc1NS(=O)(=O)c1ccccc1-c1nc(-c2ccc(F)cc2)no1`, 1280 s. For `CCCS(=O)(=O)N1CCCC(Cn2cc(COc3ccc4c(c3)CCC4)nn2)C1` (centres undefined) the value was 997 s; for `O=C(Cn1cnc2nc3c(cc2c1=O)CCCC3)Nc1ccccc1F`, 703 s. `COc1ccc(CNC(=O)c2cc3sccc3n2C)cc1`: the RP-LC retention time is 894 s. Turning to `O=C(c1ccco1)N1CCN(c2ccc(=O)n(-c3ccccc3)n2)CC1`, the RP-LC retention time stood at 701 s. For `CC(NC(=O)Nc1ccccc1)C(c1ccccc1)N1CCN(C)CC1` (centres undefined) the value was 572 s; for `O=C(CC1CCCCC1)NC1CCN(C(=O)c2cc(-c3cccc(Cl)c3)n[nH]2)CC1`, 797 s; for `Cc1cccc(NC(=O)Cn2nc(N3CCCC(C)C3)c3ccccc3c2=O)c1C` (centres undefined), 1120 s. With `O=C(Nc1nc(-c2ccc(Cl)cc2)cs1)c1cccc(-n2cnnc2)n1` the figure was 865 s; with `O=c1[nH]cc(S(=O)(=O)NC2CCCC2)c(=O)[nH]1`, 600 s.

With `CN(C)c1nn(CC(=O)NCc2ccc3c(c2)OCO3)c(=O)c2ccccc12`, the RP-LC retention time was determined as 765 s. With `CC(C)CC(=O)Nc1cnc(-c2ccccc2)nc1` the figure was 906 s; with `CC(=O)Nc1ccc(C(=O)NC2CCN(c3cc(-c4ccc(F)cc4)[nH]n3)C2)cc1` (centres undefined), 641 s. `CCN1CCn2cc(S(=O)(=O)Nc3cc(Cl)ccc3OC)cc2C1=O` returned an RP-LC retention time of 764 s. For `O=C(C1CCN(S(=O)(=O)c2ccc(-c3noc(C4CCCCC4)n3)cc2)CC1)N1CCCC1` the value was 836 s. For `CCn1ccc2sc(C)c(C(=O)NCc3cccc(OC)c3OC)c2c1=O` the value was 814 s; for `CS(=O)(=O)N1CCN(C(=O)Cc2csc(Nc3ncccn3)n2)CC1`, 601 s; for `Cc1cc(C)n(-c2ccc(=O)n(CCNC(=O)c3cc(C)on3)n2)n1`, 640 s.
